We go through 12 compounds from US20240366770A1, “DEGRADATION OF BRUTON'S TYROSINE KINASE (BTK) BY CONJUGATION OF BTK INHIBITORS WITH E3 LIGASE LIGAND AND METHODS OF USE” (BeiGene Switzerland GmbH, priority 2021, published 2024).

The test system of assay [1] is HEK-293 cells. Put plainly: HEK-293 cytotoxicity detection (CellTiter-Glo). The format is cell-based. Particulars: Homo sapiens; HEK-293 cells, 72 h incubation, CellTiter-Glo luminescence, IC50 of cell proliferation inhibition; read-out: HEK293. The method in brief:
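HEK-293 cells exposed 72 h to an 8-point, 4-fold dilution series (top 500× stock 5 mM in DMSO; 0.2% DMSO final). Viability by CellTiter-Glo luminescence after 10 min at room temperature; IC50 from four-parameter Hill fit of percent inhibition.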
(Cellular ATP, detected with luciferase, serves as a proxy for viable cell number.)

For assay [2], the target named is T1, BTK (Homo sapiens, UniProt Q06187).
T1 construct: High control=Cell group with added DMSO and without compound, indicating microplate readings without BTK degradation; endogenous in cells; host or cells: TMD-8
Put plainly: BTK degradation in TMD-8 cells (HTRF assay). The format is cell-based. The settings on record: 6 h treatment, IC50 (DC50) of BTK degradation. In short, it runs like this: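 TMD-8 cells were exposed for 6 h to 8 compound doses (6-fold serial dilution, 0.2% DMSO). Lysed cells were incubated overnight at room temperature with HTRF antibodies and read at 665/620 nm. DC50 came from four-parameter fitting of % inhibition versus concentration.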
(Time-resolved FRET reads energy transfer from a long-lived donor to a nearby acceptor.)

T1 sequence (Q06187 whole entry): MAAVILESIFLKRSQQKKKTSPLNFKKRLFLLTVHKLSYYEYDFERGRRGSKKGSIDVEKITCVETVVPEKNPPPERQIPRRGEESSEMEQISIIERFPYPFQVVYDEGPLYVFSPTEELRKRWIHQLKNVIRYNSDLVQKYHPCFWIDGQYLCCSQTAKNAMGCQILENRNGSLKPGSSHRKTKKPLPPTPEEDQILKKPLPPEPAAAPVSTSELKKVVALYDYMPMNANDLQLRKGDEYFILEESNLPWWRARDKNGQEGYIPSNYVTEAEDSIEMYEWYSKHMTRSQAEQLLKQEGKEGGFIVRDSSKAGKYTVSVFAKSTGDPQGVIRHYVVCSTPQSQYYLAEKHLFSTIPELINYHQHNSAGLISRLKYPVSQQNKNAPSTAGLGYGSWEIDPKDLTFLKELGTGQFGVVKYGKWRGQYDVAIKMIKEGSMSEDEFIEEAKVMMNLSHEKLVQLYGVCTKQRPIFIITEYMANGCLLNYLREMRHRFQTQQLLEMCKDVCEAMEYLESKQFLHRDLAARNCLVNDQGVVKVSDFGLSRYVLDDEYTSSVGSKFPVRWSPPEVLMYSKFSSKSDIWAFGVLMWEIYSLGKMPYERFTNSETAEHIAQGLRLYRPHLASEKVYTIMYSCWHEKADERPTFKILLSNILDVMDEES

In the case of `Cc1cc(-c2ncnc3[nH]c4cc(N5CCC6(CC5)CCN([C@H]5C[C@@H](c7ccc([C@H]8CCC(=O)NC8=O)cc7)C5)CC6)ccc4c23)ccc1[C@@H](C)NC(=O)c1nc(C(C)(C)C)no1` [Example 113, 3-(tert-butyl)-N—((R)-1-(4-(7-(9-((1S,3s)-3-(4-((R)-2,6-dioxopiperidin-3-yl)phenyl)cyclobutyl)-3,9-diazaspiro[5.5]undecan-3-yl)-9H-pyrimido[4,5-b]indol-4-yl)-2-methylphenyl)ethyl)-1,2,4-oxadiazole-5-carboxamide], in assay [1], the IC50 was determined as 1120 nM. In assay [2], half-maximal degradation (DC50) was put at 3.46 nM.

For the compound `COc1cc2c(cc1N1CCN(C3CCC(c4ccc(C5CCC(=O)NC5=O)cc4)CC3)CC1)[nH]c1ncnc(-c3ccc([C@@H](C)NC(=O)c4nc(C(C)(C)C)no4)c(C)c3)c12` (stereo partly drawn) [Example 48, 3-(tert-butyl)-N-((1R)-1-(4-(7-(4-(4-(4-(2,6-dioxopiperidin-3-yl)phenyl)cyclohexyl)piperazin-1-yl)-6-methoxy-9H-pyrimido[4,5-b]indol-4-yl)-2-methylphenyl)ethyl)-1,2,4-oxadiazole-5-carboxamide], the IC50 in assay [1] was more than 10000 nM. The DC50 (as a rule, the concentration giving 50% degradation) in assay [2] was found to be 0.874 nM.

For `Cc1cc(-c2ncnc3[nH]c4cc(N5CCN(CC6CCN(c7ccc(N8CCC(=O)NC8=O)cc7)CC6)CC5)ccc4c23)c(F)cc1[C@@H](C)NC(=O)c1nc(C(C)(C)C)no1` [Example 23, (R)-3-(tert-butyl)-N-(1-(4-(7-(4-((1-(4-(2,4-dioxotetrahydropyrimidin-1(2H)-yl)phenyl)piperidin-4-yl)methyl)piperazin-1-yl)-9H-pyrimido[4,5-b]indol-4-yl)-5-fluoro-2-methylphenyl)ethyl)-1,2,4-oxadiazole-5-carboxamide], in assay [1], the IC50 stood at 2900 nM. The same compound registered a DC50 in assay [2] of 0.608 nM.

On to `CC(C)(C)c1noc(C(=O)N[C@@H]2CCc3cc(-c4ncnc5[nH]c6cc(N7CCN(CC8CCN(c9ccc(N%10CCC(=O)NC%10=O)cc9)CC8)CC7)ccc6c45)ccc32)n1` [Example 37, (R)-3-(tert-butyl)-N-(5-(7-(4-((1-(4-(2,4-dioxotetrahydropyrimidin-1(2H)-yl)phenyl)piperidin-4-yl)methyl)piperazin-1-yl)-9H-pyrimido[4,5-b]indol-4-yl)-2,3-dihydro-1H-inden-1-yl)-1,2,4-oxadiazole-5-carboxamide], for which, in assay [1], the IC50 was more than 10000 nM. In assay [2], this compound yielded a half-maximal degradation concentration (DC50) of 57.6 nM.

Consider `Cc1cc(-c2ncnc3[nH]c4cc(N5CCN(CC6CCN(c7ccc(N8CCC(=O)NC8=O)cc7)CC6)CC5)ccc4c23)ccc1[C@@H](C)NC(=O)c1nc(C2(C)CC2)no1` [Example 35, (R)—N-(1-(4-(7-(4-((1-(4-(2,4-dioxotetrahydropyrimidin-1(2H)-yl)phenyl)piperidin-4-yl)methyl)piperazin-1-yl)-9H-pyrimido[4,5-b]indol-4-yl)-2-methylphenyl)ethyl)-3-(1-methylcyclopropyl)-1,2,4-oxadiazole-5-carboxamide], for which, in assay [1], the IC50 is more than 10000 nM. Besides, half-maximal degradation in assay [2] (DC50) was put at 0.15 nM.

On to `Cc1cc(-c2ncnc3[nH]c4cc(N5CCN(CC6CN(c7ccc(N8CCC(=O)NC8=O)cc7)C6)CC5)ccc4c23)ccc1[C@@H](C)NC(=O)c1nc(C2(C)CC2)no1` [Example 126, (R)—N-(1-(4-(7-(4-((1-(4-(2,4-dioxotetrahydropyrimidin-1(2H)-yl)phenyl)azetidin-3-yl)methyl)piperazin-1-yl)-9H-pyrimido[4,5-b]indol-4-yl)-2-methylphenyl)ethyl)-3-(1-methylcyclopropyl)-1,2,4-oxadiazole-5-carboxamide], for which the IC50 in assay [1] was more than 10000 nM. The compound further registered a DC50 in assay [2] of 0.449 nM.

Turning to `Cc1cc(-c2ncnc3[nH]c4cc(N5CCC6(CCN(CC7CCN(c8ccc(N9CCC(=O)NC9=O)cc8)CC7)CC6)CC5)ccc4c23)ccc1[C@@H](C)NC(=O)c1nc(C(C)(C)C)no1` [Example 114, (R)-3-(tert-butyl)-N-(1-(4-(7-(9-((1-(4-(2,4-dioxotetrahydropyrimidin-1(2H)-yl)phenyl)piperidin-4-yl)methyl)-3,9-diazaspiro[5.5]undecan-3-yl)-9H-pyrimido[4,5-b]indol-4-yl)-2-methylphenyl)ethyl)-1,2,4-oxadiazole-5-carboxamide], the IC50 in assay [1] was determined as 923 nM. The DC50 in assay [2] is 1.89 nM.

Turning to `Cc1cc(-c2ncnc3[nH]c4cc(N5CCN(CC6CCN(c7ccc(N8CCC(=O)NC8=O)cc7)CC6)CC5)ccc4c23)ccc1[C@@H](C)NC(=O)c1nc(C(C)(C)C)no1` [Example 6, (R)-3-(tert-butyl)-N-(1-(4-(7-(4-((1-(4-(2,4-dioxotetrahydropyrimidin-1(2H)-yl)phenyl)piperidin-4-yl)methyl)piperazin-1-yl)-9H-pyrimido[4,5-b]indol-4-yl)-2-methylphenyl)ethyl)-1,2,4-oxadiazole-5-carboxamide], in assay [1], the IC50 was more than 10000 nM. The compound further came in with a 50% degradation concentration (DC50) in assay [2] of 0.394 nM.

As for `Cc1c([C@@H](C)NC(=O)c2noc(C(C)(C)C)n2)ccc(-c2ncnc3[nH]c4cc(N5CCN(C6CC(c7ccc([C@@H]8CCC(=O)NC8=O)cc7)C6)CC5)ccc4c23)c1F` (stereo partly drawn) [Example 31, 5-(tert-butyl)-N—((R)-1-(4-(7-(4-(3-(4-((S)-2,6-dioxopiperidin-3-yl)phenyl)cyclobutyl)piperazin-1-yl)-9H-pyrimido[4,5-b]indol-4-yl)-3-fluoro-2-methylphenyl)ethyl)-1,2,4-oxadiazole-3-carboxamide], the IC50 in assay [1] is more than 10000 nM. The compound also came in with a DC50 in assay [2] of 1.43 nM.

Take `COc1cc2c(cc1N1CCN(Cc3ccc4c(c3)C(C)(C)C(=O)N4C3CCC(=O)NC3=O)CC1)[nH]c1ncnc(-c3ccc([C@@H](C)NC(=O)c4nc(C(C)(C)C)no4)c(C)c3)c12` (stereo partly drawn) [Example 73, 3-(tert-butyl)-N-((1R)-1-(4-(7-(4-((1-(2,6-dioxopiperidin-3-yl)-3,3-dimethyl-2-oxoindolin-5-yl)methyl)piperazin-1-yl)-6-methoxy-9H-pyrimido[4,5-b]indol-4-yl)-2-methylphenyl)ethyl)-1,2,4-oxadiazole-5-carboxamide]: the IC50 in assay [1] is more than 10000 nM. The DC50 in assay [2] is 1.27 nM.

With `Cc1c([C@@H](C)NC(=O)c2noc(C(C)(C)C)n2)ccc(-c2ncnc3[nH]c4cc(N5CCN(C6CC(c7ccc(N8CCC(=O)NC8=O)cc7)C6)CC5)ccc4c23)c1F` (stereo partly drawn) [Example 33, (R)-5-(tert-butyl)-N-(1-(4-(7-(4-(3-(4-(2,4-dioxotetrahydropyrimidin-1(2H)-yl)phenyl)cyclobutyl)piperazin-1-yl)-9H-pyrimido[4,5-b]indol-4-yl)-3-fluoro-2-methylphenyl)ethyl)-1,2,4-oxadiazole-3-carboxamide], the IC50 in assay [1] was more than 10000 nM. In assay [2], this compound returned a DC50 of 3.67 nM.

Take `COc1cc2c(cc1N1CCN(C3CC(c4ccc([C@H]5CCC(=O)NC5=O)cc4)C3)CC1)[nH]c1ncnc(-c3ccc([C@@H](C)NC(=O)c4nc(C5(C)CC5)no4)c(C)c3F)c12` (stereo partly drawn) [Example 72, N—((R)-1-(4-(7-(4-(3-(4-((R)-2,6-dioxopiperidin-3-yl)phenyl)cyclobutyl)piperazin-1-yl)-6-methoxy-9H-pyrimido[4,5-b]indol-4-yl)-3-fluoro-2-methylphenyl)ethyl)-3-(1-methylcyclopropyl)-1,2,4-oxadiazole-5-carboxamide]: the IC50 in assay [1] was more than 10000 nM. It took 15.9 nM to reach half-maximal degradation in assay [2] (DC50).
